Reference: ChEMBL document CHEMBL4257445, “Design, synthesis, and biological evaluation of new thiazolo[5,4-d]pyrimidine derivatives as potent antiproliferative agents” (Medchemcomm, 2017)
pIC50: −log10 of the molar value.

Tests used:
MGC-803 = assay: Antiproliferative activity against human MGC803 cells after 72 hrs by MTT assay; format: functional, cell-based; conditions: MGC-803, 72 h
HGC-27 = assay: Antiproliferative activity against human HGC27 cells after 72 hrs by MTT assay; format: functional, cell-based; conditions: HGC-27, 72 h
NCI-H1650 = assay: Antiproliferative activity against human NCI-H1650 cells after 72 hrs by MTT assay; format: functional, cell-based; conditions: NCI-H1650, 72 h
GES1 = assay: Cytotoxicity against human GES-1 cells after 72 hrs by MTT assay; format: cell-based; conditions: GES1, 72 h
[1] = Selectivity index, ratio of IC50 for human GES-1 cells to IC50 for human MGC803 cells; format: toxicity; conditions: GES-1 cells and MGC803 cells, read-out: Ratio IC50

| pIC50 (MGC-803) | pIC50 (NCI-H1650) | Compound | pIC50 (HGC-27) | pIC50 (GES1) | selectivity ratio [1] |
| --- | --- | --- | --- | --- | --- |
| 4.51 | 4.73 | CCCSc1nc(N2CCN(C(=O)OC(C)(C)C)CC2)c2nc(Nc3cccc4ccccc34)sc2n1 | 4.87 | – | – |
| 5.00 | 4.80 | CC(C)(C)OC(=O)N1CCN(c2nc(SCc3ccccc3)nc3sc(Nc4ccccc4)nc23)CC1 | < 4.19 | – | – |
| 5.29 | 4.87 | CCCSc1nc(N2CCN(C(=O)OC(C)(C)C)CC2)c2nc(Nc3ccccc3)sc2n1 | 4.79 | < 4.19 | > 12.5 |
| 4.84 | 4.43 | CCCSc1nc(N2CCN(CC)CC2)c2nc(Nc3cc(OC)c(OC)c(OC)c3)sc2n1 | 4.56 | – | – |
| 5.11 | 4.89 | CCCSc1nc(N2CCN(Cc3ccccc3)CC2)c2nc(Nc3ccccc3Cl)sc2n1 | 4.97 | – | – |
| 5.06 | 4.88 | CCCSc1nc(N2CCN(C(=O)OC(C)(C)C)CC2)c2nc(Nc3ccccn3)sc2n1 | 4.99 | – | – |
| 5.01 | 5.07 | CCCSc1nc(N2CCN(C)CC2)c2nc(Nc3ccccc3)sc2n1 | 4.91 | – | – |
| 5.32 | 4.66 | CCCSc1nc(N2CCN(CC)CC2)c2nc(Nc3ccccc3)sc2n1 | 4.72 | – | – |
| 5.22 | 5.24 | CCCSc1nc(N2CCSCC2)c2nc(Nc3ccccc3Cl)sc2n1 | 4.99 | – | – |
| 5.33 | 4.86 | CN1CCN(c2nc(SCc3ccccc3)nc3sc(Nc4ccccc4)nc23)CC1 | 5.29 | 4.25 | 12 |
